Measurements: ChEMBL document CHEMBL5537177, “Discovery of Potent Antimalarial Type II Kinase Inhibitors with Selectivity over Human Kinases” (J Med Chem, 2024)
The source made the active and inactive calls. The rule behind the calls is not given here.

Tests used:
Plasmodium falciparum [1] = assay: Antimalarial activity against Plasmodium falciparum harboring AcAS A597V mutation assessed as reduction in parasitemia incubated for 72 hrs by SYBR green I dye based analysis; assay type: functional, organism-based
Plasmodium falciparum [2] = assay: Antimalarial activity against Plasmodium falciparum harboring PI4K S1320L mutation assessed as reduction in parasitemia incubated for 72 hrs by SYBR green I dye based analysis; assay type: functional, organism-based
Plasmodium falciparum [3] = assay: microbe, parasite or virus in culture; conditions: Dd2, 72 h
Description: Antimalarial activity against wild-type Plasmodium falciparum Dd2 assessed as reduction in parasitemia incubated for 72 hrs by SYBR green I dye based analysis

[4] = Volume of distribution at steady state in Balb/C mouse at 3 mg/kg, iv; assay type: ADME, organism-based; conditions: in vivo, read-out: Vdss
Plasmodium falciparum [5] = assay: Antimalarial activity against Plasmodium falciparum harboring CARL I1139K mutation assessed as reduction in parasitemia incubated for 72 hrs by SYBR green I dye based analysis; assay type: functional, organism-based
[6] = Half life in Balb/C mouse at 3 mg/kg, iv; assay type: ADME, organism-based; conditions: in vivo
[7] = Selectivity index, ratio of EC50 for human MCF7 cells to EC50 for multidrug-resistant Plasmodium falciparum Dd2 at ring stage infected in A+ erythrocytes; assay type: toxicity, cell-based; conditions: read-out: Ratio EC50
Plasmodium falciparum [8] = assay: Antiplasmodial activity against multidrug-resistant Plasmodium falciparum Dd2 at ring stage infected in A+ erythrocytes assessed as parasite growth reduction incubated for 72 hrs by SYBR Green I dye based analysis; assay type: functional, organism-based; conditions: Dd2, Erythrocyte
Plasmodium falciparum [9] = assay: Antiplasmodial activity against drug-sensitive Plasmodium falciparum 3D7 at ring stage infected in A+ erythrocytes assessed as parasite growth reduction incubated for 72 hrs by SYBR Green I dye based analysis; assay type: functional, organism-based; conditions: 3D7, Erythrocyte
Plasmodium falciparum [10] = assay: Resistance index, ratio of EC50 for multidrug-resistant Plasmodium falciparum Dd2 at ring stage infected in A+ erythrocytes to EC50 for drug-sensitive Plasmodium falciparum 3D7 at ring stage infected in A+ erythrocytes; assay type: organism-based; conditions: human
[11] = Selectivity index, ratio of EC50 for human HepG2 cells to EC50 for multidrug-resistant Plasmodium falciparum Dd2 at ring stage infected in A+ erythrocytes; assay type: toxicity, cell-based; conditions: read-out: Ratio EC50
[12] = (§1) Cytotoxicity against human MCF7 cells assessed as reduction in cell viability incubated for 48 hrs by MTS assay; assay type: toxicity, cell-based; conditions: human, MCF7 cells
[13] = (§2) Cytotoxicity against human HepG2 cells assessed as reduction in cell viability incubated for 48 hrs by MTS assay; assay type: toxicity, cell-based; conditions: human, HepG2 cells
Plasmodium falciparum [14] = assay: microbe, parasite or virus in culture; conditions: Dd2, 72 h; remark: listed apart in the source
Description: Antiplasmodial activity against asynchronous Plasmodium falciparum Dd2 assessed as parasite growth reduction incubated for 72 hrs by SYBR Green I dye based analysis

Ephrin type-A receptor 2 = Ephrin type-A receptor 2 (Homo sapiens, UniProt P29317); assay: Inhibition of human EphA2 by FRET assay
Chain of Ephrin type-A receptor 2 (P29317 whole entry): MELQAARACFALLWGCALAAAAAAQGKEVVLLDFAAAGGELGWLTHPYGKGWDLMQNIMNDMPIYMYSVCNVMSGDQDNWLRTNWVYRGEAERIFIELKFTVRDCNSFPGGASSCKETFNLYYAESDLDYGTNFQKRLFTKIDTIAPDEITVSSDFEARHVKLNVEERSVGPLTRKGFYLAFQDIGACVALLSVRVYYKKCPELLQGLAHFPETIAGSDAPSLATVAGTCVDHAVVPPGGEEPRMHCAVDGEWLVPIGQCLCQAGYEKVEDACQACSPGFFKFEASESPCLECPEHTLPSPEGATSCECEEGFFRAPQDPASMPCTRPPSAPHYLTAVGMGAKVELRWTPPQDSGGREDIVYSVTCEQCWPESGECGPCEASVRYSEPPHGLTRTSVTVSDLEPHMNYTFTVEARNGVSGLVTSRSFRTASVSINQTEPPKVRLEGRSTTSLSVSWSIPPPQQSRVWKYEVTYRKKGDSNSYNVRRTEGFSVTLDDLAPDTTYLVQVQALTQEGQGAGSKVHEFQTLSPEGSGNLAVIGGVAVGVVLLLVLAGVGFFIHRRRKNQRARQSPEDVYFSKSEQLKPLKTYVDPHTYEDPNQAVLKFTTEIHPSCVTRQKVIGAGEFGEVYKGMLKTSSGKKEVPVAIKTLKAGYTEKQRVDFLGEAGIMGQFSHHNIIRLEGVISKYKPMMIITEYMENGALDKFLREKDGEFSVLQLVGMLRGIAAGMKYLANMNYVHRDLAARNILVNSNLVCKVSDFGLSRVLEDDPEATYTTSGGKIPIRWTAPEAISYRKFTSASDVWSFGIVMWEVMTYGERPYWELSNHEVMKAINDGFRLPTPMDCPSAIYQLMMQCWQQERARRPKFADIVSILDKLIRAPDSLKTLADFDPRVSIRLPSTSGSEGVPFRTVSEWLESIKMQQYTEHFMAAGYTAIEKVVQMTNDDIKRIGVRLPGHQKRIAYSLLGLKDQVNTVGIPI

Plasmodium falciparum [15] = assay: Antimalarial activity against synchronous blood-stage Plasmodium falciparum 3D7 assessed as parasite clearance time at 10 times EC50 treated every 24 hrs for 120 hrs followed by compound washout and subsequent addition of RBCs measured after 21 days by parasite reduction ratio assay; assay type: functional
Plasmodium falciparum [16] = assay: Antimalarial activity against synchronous blood-stage Plasmodium falciparum 3D7 assessed as duration of lag phase at 10 times EC50 treated every 24 hrs for 120 hrs followed by compound washout and subsequent addition of RBCs measured after 21 days by parasite reduction ratio assay; assay type: functional
Plasmodium falciparum [17] = assay: Antimalarial activity against synchronous blood-stage Plasmodium falciparum 3D7 assessed as log of parasite reduction ratio at 10 times EC50 treated every 24 hrs for 120 hrs followed by compound washout and subsequent addition of RBCs measured after 21 days; assay type: functional
Plasmodium falciparum [18] = assay: Antimalarial activity against Plasmodium falciparum at ring stage infected erythrocytes assessed as reduction in parasitemia measured after 60 hrs by flow cytometry; assay type: functional, organism-based; conditions: Erythrocyte
Plasmodium falciparum [19] = assay: (§3) Antimalarial activity against artemisinin-resistant/piperaquine-sensitive synchronized early ring stage Plasmodium falciparum IPC 5202 (MRA-1240) clinical isolate assessed as decrease in parasite survival at ring stage at 10 times EC50 treated for 6 to 48 hrs followed by compound removal measured after 72 hrs by geimsa staining based microscopy; assay type: functional, organism-based
Plasmodium falciparum [20] = assay: as §3, with “artemisinin/piperaquine-resistant” for “artemisinin-resistant/piperaquine-sensitive”, “6261 (MRA-1284)” for “5202 (MRA-1240)”; assay type: functional, organism-based
Plasmodium falciparum [21] = assay: as §3, with “artemisinin/piperaquine-resistant” for “artemisinin-resistant/piperaquine-sensitive”, “6261 (MRA-1284)” for “5202 (MRA-1240)”, “for” for “for 6 to”; assay type: functional, organism-based
Plasmodium falciparum [22] = assay: as §3, with “artemisinin-resistant” for “artemisinin-resistant/piperaquine-sensitive”, “6” for “6 to 48”; assay type: functional, organism-based
Plasmodium falciparum [23] = assay: as §3, with “artemisinin-resistant” for “artemisinin-resistant/piperaquine-sensitive”, “for” for “for 6 to”; assay type: functional, organism-based
Plasmodium falciparum [24] = assay: as §3, with “artemisinin-sensitive” for “artemisinin-resistant/piperaquine-sensitive”, “5188 (MRA-1239)” for “5202 (MRA-1240)”, “6” for “6 to 48”; assay type: functional, organism-based
Plasmodium falciparum [25] = assay: as §3, with “artemisinin/piperaquine-sensitive” for “artemisinin-resistant/piperaquine-sensitive”, “5188 (MRA-1239)” for “5202 (MRA-1240)”; assay type: functional, organism-based
Plasmodium falciparum [26] = assay: as §3, with “artemisinin-sensitive” for “artemisinin-resistant/piperaquine-sensitive”, “5188 (MRA-1239)” for “5202 (MRA-1240)”, “for” for “for 6 to”; assay type: functional, organism-based
MCF7 = assay: as §1; assay type: toxicity, cell-based; conditions: mcf7
Plasmodium falciparum [27] = assay: as §3, with “artemisinin/piperaquine-resistant” for “artemisinin-resistant/piperaquine-sensitive”, “6261 (MRA-1284)” for “5202 (MRA-1240)”, “6” for “6 to 48”; assay type: functional, organism-based
Plasmodium falciparum [28] = assay: Antimalarial activity against synchronized early ring stage Plasmodium falciparum 3D7 (MRA-152) clinical isolate assessed as decrease in parasite survival at ring stage at 10 times EC50 treated for 48 hrs followed by compound removal measured after 72 hrs by geimsa staining based microscopy; assay type: functional, organism-based
Plasmodium falciparum [29] = assay: Antimalarial activity against synchronized early ring stage Plasmodium falciparum 3D7 (MRA-152) clinical isolate assessed as decrease in parasite survival at ring stage at 10 times EC50 treated for 6 hrs followed by compound removal measured after 72 hrs by geimsa staining based microscopy; assay type: functional, organism-based
[30] = Metabolic stability in mouse liver microsomes assessed as intrinsic clearance; assay type: ADME, Liver cells
[31] = Metabolic stability in mouse liver microsomes assessed as half life; assay type: ADME, Liver cells
Plasmodium falciparum [32] = assay: Antimalarial activity against synchronized early ring stage Plasmodium falciparum 3D7 (MRA-152) clinical isolate assessed as decrease in parasite survival at ring stage at 10 times EC50 treated for 6 to 48 hrs followed by compound removal measured after 72 hrs by geimsa staining based microscopy; assay type: functional, organism-based
HepG2 = assay: as §2; assay type: toxicity, cell-based; conditions: hepg2

SMILES: CC1(C)c2nc(-c3ccc(F)cc3)c(Nc3ccc(Cl)cc3)n2CCN1C(=O)CN
- EC50 (Plasmodium falciparum [1]): 0.0011 µM
- EC50 (Plasmodium falciparum [2]): 0.0019 µM
- EC50 (Plasmodium falciparum [3]): 0.0018 µM
- Vd [4]: 11.8 L/kg
- EC50 (Plasmodium falciparum [5]): 1.39 µM
- half-life [6]: 8.9 h

SMILES: CCN1CCN(Cc2ccc(NC(=O)c3cc(C)cc(NC(=O)c4cncc(-c5cccs5)c4)c3)cc2C(F)(F)F)CC1
- selectivity ratio [7]: 14
- EC50 (Plasmodium falciparum [8]): 0.372 µM
- EC50 (Plasmodium falciparum [9]): 0.235 µM
- Ratio EC50 (Plasmodium falciparum [10]): 1.6
- selectivity ratio [11]: 8.6
- EC50 at 48 h [12]: 5.22 µM
- EC50 at 48 h [13]: 3.2 µM

SMILES: CCN1CCN(Cc2ccc(NC(=O)c3cc(NC(=O)c4cncc(-c5cccs5)c4)cc(OC)c3)cc2C(F)(F)F)CC1
- EC50 (Plasmodium falciparum [14]): 0.341 µM
- IC50 (Ephrin type-A receptor 2): > 10 µM

SMILES: C[C@H]1[C@@H](O)O[C@@H]2O[C@@]3(C)CC[C@H]4[C@H](C)CC[C@@H]1[C@@]24OO3 [ARTENIMOL]
- T99.9% (Plasmodium falciparum [15]): 31 h
- Time (Plasmodium falciparum [16]): 0 h
- log(activity) (Plasmodium falciparum [17]): 3.93

SMILES: Cc1cn(-c2cc(NC(=O)c3ccc(C)c(Nc4nccc(-c5cccnc5)n4)c3)cc(C(F)(F)F)c2)cn1 [NILOTINIB]
- EC50 (Plasmodium falciparum [18]): < 1 µM

SMILES: O=C1C(O)=C([C@H]2CC[C@H](c3ccc(Cl)cc3)CC2)C(=O)c2ccccc21 [ATOVAQUONE]
- T99.9% (Plasmodium falciparum [15]): 101 h
- Time (Plasmodium falciparum [16]): 72 h
- log(activity) (Plasmodium falciparum [17]): 2.95

SMILES: Cc1ccc(NC(=O)c2ccc(CN3CC[C@H](N(C)C)C3)c(C(F)(F)F)c2)cc1Nc1nccc(-c2cncnc2)n1 [BAFETINIB]
- EC50 (Plasmodium falciparum [18]): 1.3 µM

SMILES: CCN1CCN(Cc2ccc(NC(=O)c3ccc(C)c(NC(=O)c4cncc(-c5cccs5)c4)c3)cc2C(F)(F)F)CC1
- EC50 (Plasmodium falciparum [14]): 3.91 µM
- IC50 (Ephrin type-A receptor 2): 0.011 µM

SMILES: CCN1CCN(Cc2ccc(NC(=O)c3cc(Cl)cc(NC(=O)c4cncc(-c5ccc(C#N)cc5)c4)c3)cc2C(F)(F)F)CC1
- selectivity ratio [7]: 61
- T99.9% (Plasmodium falciparum [15]): < 32 h
- EC50 (Plasmodium falciparum [19]): 0.0415 µM
- EC50 (Plasmodium falciparum [20]): 0.0649 µM
- Activity (Plasmodium falciparum [21]): Active
- EC50 (Plasmodium falciparum [8]): 0.036 µM
- EC50 (Plasmodium falciparum [9]): 0.036 µM
- Ratio EC50 (Plasmodium falciparum [10]): 1
- selectivity ratio [11]: 41
- Activity (Plasmodium falciparum [22]): inactive
- Time (Plasmodium falciparum [16]): 0 h
- Activity (Plasmodium falciparum [23]): Active
- Activity (Plasmodium falciparum [24]): inactive
- EC50 (Plasmodium falciparum [25]): 0.0439 µM
- Activity (Plasmodium falciparum [26]): Active
- EC50 (MCF7): 2.19 µM
- Activity (Plasmodium falciparum [27]): inactive
- Activity (Plasmodium falciparum [28]): Active
- Activity (Plasmodium falciparum [29]): inactive
- log(activity) (Plasmodium falciparum [17]): 5.12
- intrinsic clearance [30]: 16 µL/min/mg
- t1/2 [31]: 0.708 h
- EC50 (Plasmodium falciparum [32]): 0.0535 µM
- EC50 (HepG2): 1.46 µM
